Results from patent publication US20250011331A1 (Nimbus Saturn, Inc., priority 2021, published 2025).

Biological target: T1, HPK1 (Homo sapiens, UniProt Q92918)
T1 construct: purchased Invitrogen
Assay: HPK1 biochemical enzyme assay (microfluidic mobility shift)
Conditions: 1.5 nM HPK1 (Invitrogen), 1 mM ATP, 30 min preincubation, 60 min at RT, Caliper EZ Reader
Description: HPK1 biochemical enzyme assay: HPK1 enzyme inhibition was measured using a microfluidic mobility shift assay. Reactions were performed in a 384-well plate, containing 1.5 nM HPK1 (Invitrogen), in assay buffer (Cama Biosciences; pH 7.4). Test compounds were titrated in ten point curves (top final assay concentration 3 μM), and preincubated with enzyme/substrate mix for 30 min prior to initiation of the reaction by addition of ATP (1 mM final concentration) and substrate (1 μM final concentration; Carna Biosciences) diluted in assay buffer supplemented by MgCl2 (final assay concentration of 5 mM). Following 60 min incubation at RT, the reaction was terminated by addition of 60 μl/well termination buffer (Carna Biosciences) and signal determination using a Caliper EZ Reader (Perkin Elmer, UK).

T1 sequence (Q92918 whole entry): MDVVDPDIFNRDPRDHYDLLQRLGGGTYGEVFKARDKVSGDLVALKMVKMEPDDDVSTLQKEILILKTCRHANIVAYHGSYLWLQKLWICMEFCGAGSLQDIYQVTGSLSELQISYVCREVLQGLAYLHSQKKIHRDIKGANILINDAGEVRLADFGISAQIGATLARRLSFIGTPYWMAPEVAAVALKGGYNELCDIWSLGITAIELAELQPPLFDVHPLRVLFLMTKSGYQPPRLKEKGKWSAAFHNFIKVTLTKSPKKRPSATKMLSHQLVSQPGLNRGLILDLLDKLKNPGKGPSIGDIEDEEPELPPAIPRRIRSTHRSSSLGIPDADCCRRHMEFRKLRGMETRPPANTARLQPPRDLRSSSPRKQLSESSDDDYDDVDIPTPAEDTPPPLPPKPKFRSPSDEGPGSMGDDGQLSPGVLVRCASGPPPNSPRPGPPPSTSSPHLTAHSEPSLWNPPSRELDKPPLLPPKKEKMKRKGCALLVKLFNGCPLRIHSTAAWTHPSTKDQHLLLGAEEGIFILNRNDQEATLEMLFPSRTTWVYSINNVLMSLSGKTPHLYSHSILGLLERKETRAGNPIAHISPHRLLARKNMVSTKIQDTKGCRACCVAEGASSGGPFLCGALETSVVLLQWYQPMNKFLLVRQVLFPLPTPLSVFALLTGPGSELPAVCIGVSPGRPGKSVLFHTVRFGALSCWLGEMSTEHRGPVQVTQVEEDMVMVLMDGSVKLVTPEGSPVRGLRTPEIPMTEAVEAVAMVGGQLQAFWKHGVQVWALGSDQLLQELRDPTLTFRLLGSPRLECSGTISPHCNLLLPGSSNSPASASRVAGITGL

| SMILES | IC50 |
| --- | --- |
| C[C@@H](c1nc(Nc2ccc(-c3cnc4cc(F)ccn34)c3c2C(=O)NC3)ccc1C1CCOCC1)N(C)C [Compound I-8, (S)-7-((6-(1-(dimethylamino)ethyl)-5-(tetrahydro-2H-pyran-4-yl)pyridin-2-yl)amino)-4-(7-fluoroimidazo[1,2-a]pyridin-3-yl)isoindolin-1-one] | ≤ 100 nM |
| CO[C@H]1C[C@H](Oc2ccc(Nc3ccc(-c4cnc5cc(F)ccn45)c4c3C(=O)NC4)nc2CN(C)C)C1 [Compound I-19] | ≤ 100 nM |
| CN(C)Cc1nc(Nc2ccc(-c3cnc4cc(F)ccn34)c3c2C(=O)NC3)ccc1[C@H]1CC[C@H](O)C1 [Compound I-3, 7-((6-((dimethylamino)methyl)-5-((1S,3S)-3-hydroxycyclopentyl)pyridin-2-yl)amino)-4-(7-fluoroimidazo[1,2-a]pyridin-3-yl)isoindolin-1-one] | ≤ 100 nM |
| CO[C@]1(c2ccc(Nc3ccc(-c4cnc5cc(F)ccn45)c4c3C(=O)NC4)nc2CN(C)C)CCOC1 (single isomer, unassigned) [Compound I-21] | ≤ 100 nM |
| C[C@@H](OC1CCC1)c1ccc(Nc2ccc(-c3cnc4cnccn34)c3c2C(=O)NC3)nc1CN(C)C [Compound I-29] | ≤ 100 nM |
| CCN1CCC(c2ccc(Nc3ccc(-c4cnc5cc(F)ccn45)c4c3C(=O)NC4)nc2CN(C)C)CC1=O (centres unmarked) [Compound I-48, 7-[[6-[(dimethylamino)methyl]-5-(1-ethyl-2-oxo-4-piperidyl)-2-pyridyl]amino]-4-(7-fluoroimidazo[1,2-a]pyridin-3-yl)isoindolin-1-one] | ≤ 100 nM |
| C[C@H](c1ccc(Nc2ccc(-c3cnc4cnccn34)c3c2C(=O)NC3)nc1CN(C)C)C1CCOCC1 [Compound I-37] | ≤ 100 nM |
| COCC1CC(c2ccc(Nc3ccc(-c4cnc5cc(F)ccn45)c4c3C(=O)NC4)nc2CN(C)C)CCO1 (centres unmarked) [Compound I-32] | ≤ 100 nM |
| CN(C)Cc1nc(Nc2ccc(-c3cnc4cc(F)ccn34)c3c2C(=O)NC3)ccc1C1(C)CCOCC1 [Compound I-4, 7-((6-((dimethylamino)methyl)-5-(4-methyltetrahydro-2H-pyran-4-yl)pyridin-2-yl)amino)-4-(7-fluoroimidazo[1,2-a]pyridin-3-yl)isoindolin-1-one] | ≤ 100 nM |
| CC(c1ccc(Nc2ccc(-c3cnc4cnccn34)c3c2C(=O)NC3)nc1CN(C)C)C1CCOCC1 (centres unmarked) [Compound I-35] | ≤ 100 nM |
| C[C@@H](OC[C@H]1COCCO1)c1ccc(Nc2ccc(-c3cnc4cc(F)ccn34)c3c2C(=O)NC3)nc1CN(C)C (single isomer, unassigned) [Compound I-34] | ≤ 100 nM |
